Legend:
Assay in all cases: relative viability (nuclei count vs DMSO), 5 days (fraction); higher = more cells survive
[1] = compound: CC1=CC=C(C=C1)C(=O)CN2C3=C(CCCC3)SC2=N [Pifithrin_alpha] + COc1cc2c(Oc3ccc(NC(=O)C4(C(=O)Nc5ccc(F)cc5)CC4)cc3F)ccnc2cc1OCCCN1CCOCC1 [Foretinib] (partner 0.25 µM)
How it was run: (§1)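 A single step with final 0.05% Triton X-100, 1% formaldehyde and 1 ug/ml Hoechst fixed the cells and stained nuclei 5 days after treatment. Lung cancer cell lines in 1536-well plates had been treated by pin tool the day after seeding with one drug alone or a fixed anchor-drug dose plus five library-drug doses (not always all listed) in √10 steps, and nuclei were counted on 4× images. Relative viability is the ratio of nuclei in treated wells to nuclei in vehicle wells, taken as the median of duplicate plates.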

Bemcentinib + AZD7762 = compound: Nc1nc(Nc2ccc3c(c2)CC[C@@H](N2CCCC2)CC3)nn1-c1cc2c(nn1)-c1ccccc1CCC2 [Bemcentinib] + NC(=O)Nc1cc(-c2cccc(F)c2)sc1C(=O)N[C@H]1CCCNC1 [AZD7762] (partner 0.2 µM)
How it was run: as §1

Axitinib + Foretinib = compound: CNC(=O)c1ccccc1Sc1ccc2c(/C=C/c3ccccn3)n[nH]c2c1 [Axitinib] + COc1cc2c(Oc3ccc(NC(=O)C4(C(=O)Nc5ccc(F)cc5)CC4)cc3F)ccnc2cc1OCCCN1CCOCC1 [Foretinib] (partner 0.25 µM)
How it was run: as §1

Axitinib + Luminespib = compound: CNC(=O)c1ccccc1Sc1ccc2c(/C=C/c3ccccn3)n[nH]c2c1 [Axitinib] + CCNC(=O)c1noc(-c2cc(C(C)C)c(O)cc2O)c1-c1ccc(CN2CCOCC2)cc1 [Luminespib] (partner 0.01 µM)
How it was run: as §1

Row | Cell Line | relative viability ([1]; first compound 3.162 µM) | relative viability ([1]; first compound 10 µM) | relative viability ([1]; first compound 100 µM) | relative viability (Bemcentinib + AZD7762; first compound 0.04 µM) | relative viability (Bemcentinib + AZD7762; first compound 0.1265 µM) | relative viability (Bemcentinib + AZD7762; first compound 0.4 µM) | relative viability (Bemcentinib + AZD7762; first compound 1.265 µM) | relative viability (Bemcentinib + AZD7762; first compound 4 µM) | relative viability (Axitinib + Foretinib; first compound 0.005 µM) | relative viability (Axitinib + Foretinib; first compound 0.01581 µM) | relative viability (Axitinib + Foretinib; first compound 0.05 µM) | relative viability (Axitinib + Foretinib; first compound 0.1581 µM) | relative viability (Axitinib + Foretinib; first compound 0.5 µM) | relative viability (Axitinib + Luminespib; first compound 0.005 µM) | relative viability (Axitinib + Luminespib; first compound 0.01581 µM) | relative viability (Axitinib + Luminespib; first compound 0.05 µM) | relative viability (Axitinib + Luminespib; first compound 0.1581 µM) | relative viability (Axitinib + Luminespib; first compound 0.5 µM) | relative viability ([1]; first compound 1 µM) | relative viability ([1]; first compound 31.62 µM)
1 | HARA | 1.08 | 0.978 | 0.656 | 0.326 | 0.26 | 0.345 | 0.185 | 0.258 | 0.768 | 0.907 | 0.945 | 0.821 | 0.919 | 0.791 | 0.823 | 0.901 | 0.721 | 0.639 |  | 
2 | EMC-BAC-2 | 0.932 | 0.968 | 0.818 | 1.14 | 1.11 | 1.14 | 1.02 | 1.06 | 1.05 | 1.08 | 1.03 | 1.08 | 1.09 | 1.27 | 1.12 | 1.19 | 1.21 | 1.25 | 0.912 | 
3 | LOU-NH91 | 0.874 | 0.935 | 0.874 | 0.423 | 0.77 | 0.791 | 0.806 | 0.799 | 0.917 | 0.659 | 0.981 | 0.962 | 0.957 | 0.325 | 0.377 | 0.379 | 0.349 | 0.331 | 0.841 | 0.868
4 | NCI-H3122 | 0.927 | 0.854 | 0.891 | 0.682 | 1.04 | 1.03 | 1.12 | 1.06 | 0.928 | 0.847 | 1.02 | 1.01 | 0.951 | 0.0794 | 0.103 | 0.092 | 0.0739 | 0.0873 | 0.932 | 
5 | NCI-H1975 | 0.8 | 0.572 | 0.568 | 0.691 | 0.702 | 0.67 | 0.687 | 0.656 | 1.05 | 0.944 | 0.938 | 0.997 | 1.03 | 0.244 | 0.337 | 0.192 | 0.198 | 0.257 | 0.869 | 0.55
6 | NCI-H1651 | 0.775 | 0.787 | 0.7 | 0.506 | 0.504 | 0.491 | 0.536 | 0.455 | 0.879 | 0.896 | 0.876 | 0.878 | 0.859 | 0.941 | 0.965 | 1.03 | 0.745 | 1 | 0.933 | 0.583
7 | NCI-H647 | 1.25 | 1.04 | 1.11 | 0.346 | 0.539 | 0.498 | 0.511 | 0.31 | 1.26 | 1.16 | 1.03 | 1.23 | 1.56 | 0.292 | 0.167 | 0.168 | 0.227 | 0.285 | 1.07 | 0.724
8 | NCI-H2126 | 0.988 | 0.946 | 1.1 | 1.05 | 1.01 | 0.999 | 1.09 | 1.09 | 1.27 | 0.967 | 1.09 | 1.21 | 1.26 | 0.82 | 0.921 | 0.963 | 0.876 | 0.912 |  | 0.96
9 | LC-2-ad | 0.902 | 0.904 | 0.871 | 0.807 | 0.838 | 1.01 | 0.831 | 0.84 | 0.871 | 0.891 | 0.917 | 0.761 | 0.959 | 1.01 | 1.13 | 1.04 | 0.897 | 0.956 |  | 
10 | NCI-H23 | 1.19 | 1.08 | 0.872 | 0.282 | 0.245 | 0.208 | 0.201 | 0.212 | 1.06 | 0.948 | 1.06 | 0.955 | 1.02 | 0.21 |  | 0.233 | 0.231 | 0.219 | 0.9 | 
11 | HCC-15 | 1.05 | 0.93 | 0.789 | 1.22 | 1.4 | 1.19 | 1.26 | 1.38 | 1.1 | 1.11 | 0.958 | 0.99 | 0.999 | 0.306 | 0.325 | 0.307 | 0.301 | 0.338 | 1.08 | 0.731
12 | H3255 | 0.949 | 0.827 | 0.92 | 0.814 | 0.887 | 0.874 | 0.773 | 0.839 | 1.03 | 0.61 | 0.848 | 0.859 | 0.801 | 0.922 | 0.609 | 0.935 | 0.83 | 0.828 | 0.716 | 0.777
13 | NCI-H838 | 0.933 | 0.991 | 0.762 | 0.942 | 0.975 | 1.02 | 0.998 | 0.917 | 1.06 | 1.11 | 1.12 | 0.906 | 1.13 | 0.247 | 0.33 | 0.334 | 0.24 | 0.246 | 1.06 | 0.8
14 | NCI-H2170 | 1.02 | 0.988 | 0.952 | 0.839 | 1.07 | 0.902 | 0.93 | 0.925 | 1.02 | 0.716 | 1.03 | 0.939 | 1.01 | 0.718 | 0.639 | 0.743 | 0.647 | 0.688 | 0.985 | 0.931
15 | EKVX |  | 0.736 | 0.636 | 0.623 | 0.719 | 0.759 | 0.723 | 0.717 | 0.861 | 0.786 | 0.349 | 0.778 | 0.824 | 0.879 | 0.86 | 0.828 | 0.878 | 0.965 | 0.744 | 0.731
16 | RERF-LC-KJ | 0.829 | 0.792 | 0.786 | 0.996 | 0.957 | 0.967 | 0.982 | 0.888 | 0.916 | 0.892 | 0.887 | 0.86 | 0.854 | 1.23 | 1.2 | 1.17 | 1.21 | 1.42 | 0.886 | 0.813
17 | LK-2 | 1.64 | 1.48 | 1.62 | 0.281 | 0.42 | 0.289 | 0.508 | 0.48 | 1.31 | 1.03 | 1.06 | 1.1 | 1.42 | 0.185 | 0.146 | 0.19 | 0.185 | 0.18 | 1.18 | 
18 | NCI-H1666 | 0.933 | 0.867 | 0.763 | 0.95 | 0.91 | 0.867 | 0.768 | 0.704 | 1 | 1.03 | 0.995 | 1.02 | 0.935 | 0.974 | 0.975 | 1.01 | 1.03 | 0.957 | 0.969 | 0.781
19 | LCLC-103H | 0.787 | 0.84 | 0.824 | 0.764 | 0.818 | 0.851 | 0.81 | 0.852 | 0.747 | 0.867 | 0.787 | 0.764 | 0.85 | 0.988 | 0.917 | 0.978 | 0.924 | 0.994 | 0.729 | 0.514
20 | NCI-H1755 | 0.833 | 0.849 | 0.862 | 0.47 | 0.704 | 0.439 | 0.434 | 0.469 | 0.946 | 0.931 | 0.788 | 0.888 | 0.935 | 0.527 | 0.63 | 0.533 | 0.364 | 0.428 | 0.819 | 0.674
21 | PC-14 | 0.998 | 1.03 | 0.94 | 0.262 | 0.419 | 0.328 | 0.334 | 0.292 | 0.92 | 0.819 | 0.989 | 0.861 | 1.03 | 0.295 |  | 0.171 | 0.141 | 0.164 | 1.09 | 0.791
22 | NCI-H2405 | 0.974 | 0.907 | 0.784 | 0.744 | 0.875 | 0.887 | 0.819 | 0.605 | 1.03 | 1.04 | 1.13 | 1.03 | 1.15 | 0.863 | 0.809 | 0.839 | 0.779 | 0.866 | 1.01 | 0.884
23 | NCI-H1395 | 0.98 | 0.975 | 0.712 |  | 0.404 | 0.425 | 0.406 | 0.366 | 0.97 | 1.03 | 0.982 | 0.939 | 0.918 | 0.8 | 0.76 | 0.838 | 0.609 | 0.586 | 0.899 | 0.748
24 | NCI-H596 | 0.737 | 0.823 | 0.958 | 1.09 | 1.13 | 1.2 | 0.941 | 1.12 | 0.504 | 0.861 | 0.803 | 0.873 | 0.818 | 1.12 | 1.09 | 1 | 0.93 | 1.04 | 0.924 | 0.735

Reference: the supplement of paper PMC10307832
